Reference: a melting point compilation (Tetko et al.; mined from patent text by program, amines drawn as free bases though some values may be those of a salt)

Point of comparison: `COc1ccc(CN(C)CCCOc2ccc(S(=O)(=O)c3c(C(C)C)n(C)c4ccccc34)cc2)cc1OC`, melting point 105 °C. Against it:
- CCNC(=O)Nc1c(C(=O)c2ccccc2)[nH]c2cc(Cl)ccc12 — higher, 222 to 235 °C
- CCCCCCCc1cc2cc(C(=O)OCC)ccc2[nH]1 — lower, 66 to 69 °C
- NC(=NO)c1ccc(C(F)(F)F)cn1 — higher, 130 to 133 °C
- Cc1cc(CC(Cc2cc(C)c(O)c(C(C)(C)C)c2)(C(=O)OC2CC(C)(C)N(C)C(C)(C)C2)C(=O)OC2CC(C)(C)N(C)C(C)(C)C2)cc(C(C)(C)C)c1O — higher, 150 °C
- C=CCN1C(=O)NC(C)(C)C1=O — lower, 66.2 to 68.7 °C
- CCN1CCC(NC(=O)Cn2c(-c3ccc(Br)cc3)nc3cccnc32)C1 (stereo not given) — higher, 202 to 204 °C
- O=C(CCl)c1cc2c(s1)SCCc1cc(=O)n(-c3ccc(Cl)cc3)nc1-2 — higher, 178 to 180 °C
- CCOC(=O)c1nc(-c2ccc(Cl)c(OC)c2F)cc(N)c1SC — lower, 93 to 94 °C
- COc1ccc(-c2nc(C(=O)Cl)c(C)o2)cc1 — lower, 89 °C
- Cc1ccc(Oc2ccc(NN)cc2)c(O)c1 — higher, 145 to 148 °C
- CCOC(=O)c1sc(-n2c(=O)n(Cc3ccc(F)cc3)c3ccccc32)nc1C — higher, 192 to 193 °C
- O=C1CCC(N2CCC(n3c(=O)[nH]c4ccccc43)CC2)CC1 — higher, 221 to 223 °C
- CCN(Cc1csc(C(C)C)n1)C(=O)N[C@H](C(=O)N[C@@H](Cc1ccccc1)C[C@H](O)[C@H](Cc1ccccc1)NC(=O)OCc1cncs1)C(C)C — lower, 58 to 60 °C
- O=[N+]([O-])c1nccn1CC(F)CO (stereo not given) — lower, 84 to 89 °C
- OCCCNCc1cc(C(F)(F)F)cc(C(F)(F)F)c1 — lower, 57 to 58 °C
- COc1ccc(CCNCC(O)C(=O)O)cc1OC (stereo not given) — higher, 188 °C
- Cc1ccc(C(=O)c2ccc([N+](=O)[O-])cc2)cc1 — higher, 122 to 123 °C
- CC(C)C[C@@H](C#N)NC(=O)[C@@H]1CCCC[C@@H]1NC(=O)c1ccc2ncsc2c1 — higher, 200 to 201 °C
- COC1CC(N)(C(=O)O)C2C(C(=O)O)C12 (stereo not given) — higher, > 275 °C
- COc1ccc(C(=O)c2ccc3[nH]c(=O)nc(-c4cccc(Cl)c4)c3c2)cc1 — higher, 248 °C
- CCOC(=O)c1cccc(NC(=O)c2sc(NC(=N)N)nc2C)c1 — higher, 149 to 152 °C
- CCOC(=O)n1nc(-c2cc(C(C)(C)C)c(O)c(C(C)(C)C)c2)c2cccnc21 — higher, 161 to 163 °C
- CC(=O)C(Oc1cc(Cl)cc(C#N)c1)C(C)=O — not separable, 105 to 108 °C
- COc1ccc(-c2ncn(Cc3ccccc3)c2-c2ccc(OC)cc2)cc1 — higher, 165 to 167 °C
- CS(=O)(=O)N1CCN(S(=O)(=O)C=Cc2ccccc2)C(C(=O)NO)C1 (stereo not given) — lower, 94 to 99 °C
- Cc1oc(-c2ccccc2)nc1CC#Cc1ccc(CC(C(=O)O)c2ccc(-c3ccccc3)cc2)cc1 (stereo not given) — higher, 163 to 165 °C
- COC(=O)/C(=C/c1ccc(OCc2ccccc2)c([N+](=O)[O-])c1)N=[N+]=[N-] — lower, 95 to 96 °C
- CC1(C)CCC(=O)Nc2cc(OCCCN3CCN(c4cccc(Cl)c4Cl)CC3)ccc21 — higher, 162 to 164 °C
- Nc1cccc(-c2ccc(CCN3CCN(CCc4ccccc4)CC3)c3ccccc23)n1 — not separable, 80 to 105 °C
- CC(C)S(=O)(=O)NCC(C)(F)c1ccc(-c2ccc(CC#N)cc2)cc1 (stereo not given) — higher, 155 to 157 °C
- COc1c(Cl)ccc(-c2nc(C(=O)OC(C)C)c(I)c(N)c2F)c1F — higher, 134 to 135 °C
- Cc1nc(-c2cccc(C(F)(F)F)c2)oc1COc1ccc(CCC(=O)O)cc1 — higher, 134 to 135 °C
- CCOC(=O)C(=CNC(C)(C)C)C(=O)c1cc(F)c(Cl)nc1Cl — lower, 78 °C
- CCCC1NCCc2ccc(NC(=N)c3cccs3)cc21 (stereo not given) — higher, 127 to 128 °C
- CCOC(=O)Cc1c(C(=O)O)c(Br)c(C(=O)c2ccc(C)cc2)n1C — higher, 183 to 185 °C
- CCOC(=O)c1ccc2c(c1)C(=CCCI)CN2 — lower, 81 °C
- CCCCCCCCc1ccc(-c2ncc(O)cn2)cc1 — higher, 147 to 149 °C
- Cc1cc(C)cc(S(=O)(=O)n2c(CCC(=O)O)cc3cc(Cl)ccc32)c1 — higher, 189 to 193 °C
- COc1ccc2c3c(cnc2c1)CCCC3O[Si](C)(C)C(C)(C)C (stereo not given) — lower, 102 to 104 °C
- CC(C)(C)n1cc(C(=O)O)c(=O)c2cc(F)c(F)cc21 — higher, > 260 °C
- c1ccc(-c2ccc3c(CCN4CCCCC4)c(-c4ccccc4)[nH]c3c2)cc1 — higher, 129 to 131 °C
- COc1cc(C(=O)NC2CC(C)(C)N(C)C(C)(C)C2)ccc1-c1nc2cc(Cl)c(Cl)cc2n1C — higher, 178 to 180 °C
- COc1ccc(Nc2cc(Cl)nc(SC)n2)cc1 — higher, 128 to 131 °C
- N#Cc1ccc(N2CCC(N3CCCC3)CC2)cc1 — lower, 88 to 89 °C
- Nc1nsc2nc3ccccc3n12 — higher, 255 to 256 °C
- NCCC1Cc2ccc(C3=NNC(=O)CC3)cc2C1 (stereo not given) — higher, 189 to 190 °C
- CCOC(=O)c1ccc(CCC(=O)O)[nH]1 — higher, 126 to 128 °C
- COC(=O)CCCc1cc2nc(Cl)ccc2n1S(=O)(=O)c1ccc(C(C)(C)C)cc1 — higher, 107 °C
- Oc1cccc(-c2nc(COc3ccc(CCCn4ccnc4)cc3)co2)c1 — higher, 164 to 165 °C
- O=C(O)C(Cc1ccccc1)Oc1ccc2cc(-c3ccc(-c4ccccc4)[nH]3)ccc2c1 (stereo not given) — higher, 176 to 178 °C
- COCCn1cc2c(C3C(=O)Nc4ccc(Br)cc43)nc(NCC(C)O)nc2n1 (stereo not given) — higher, > 300 °C
- CC(C)(C)c1cccc(S(=O)(=O)n2c(C(C)(O)c3ccc(C(=O)O)s3)cc3cc(C(F)(F)F)ccc32)c1 (stereo not given) — lower, 80 °C
- O=c1c(-c2ccc(Cl)cc2)c(CCC2CC2)nc2ccccn12 — higher, 126 to 127 °C
- Cc1ccc(C2c3c(C)c(N4CCN(C)CC4)c(C)c(C)c3OC2(C)C)cc1 (stereo not given) — higher, 188 to 190 °C
- COc1ccc(Cn2c(C)nc3c(Cl)ncnc32)cc1 — higher, 121 to 123 °C
- CCON=C(C(C)=NOCc1ccccc1C(=NOC)C(=O)NC)c1ccc(Oc2ccc(Cl)cc2)cc1 — higher, 126 to 129 °C
- COC(=O)C(C)(C)Nc1ccc(OCc2ccccc2)cc1 — lower, < 50 °C
- CCn1c(Br)cc2c(C)nc3c(Br)cnn3c21 — higher, 135 to 137 °C
- O=C(NC1CCN(Cc2ccccc2)CC1)c1ccc(Nc2c(C(=O)NC3CCN(Cc4ccccc4)CC3)cnc3cc(Cl)ccc23)cc1 — higher, 230 to 232 °C
- CCc1nc(-c2ccc(OCCCN3C(=O)c4ccccc4C3=O)cc2)no1 — higher, 135 to 136 °C
- CCCc1c(OCCCSc2nnc(SCC(=O)OCC)s2)ccc(C(C)=O)c1O — lower, 71 to 72.5 °C
- COc1ccc(CN2C(=O)C3CC(c4ccc([N+](=O)[O-])cc4)(C3)C2=O)cc1 — higher, 146 to 147 °C
- CN(C)C(=O)c1ccccc1[N+](=O)[O-] — lower, 74 to 76 °C
- CCCC(=O)Nc1nn(COCC[Si](C)(C)C)c2cc(Cl)c(Br)cc12 — higher, 130 °C
- O=c1[nH]c2ccc([N+](=O)[O-])cc2c(O)c1[N+](=O)[O-] — higher, 197 to 198 °C
- CC(C)(C)OC(=O)Nc1cc(N2CCOCC2)c(C#Cc2ccccc2)cc1N — higher, 174 to 176 °C
- COc1ccc2c(c1)CCC(C(=O)O)O2 (stereo not given) — higher, 131 to 135 °C
- CC(C(=O)O)c1ccc2c(c1)C(=O)Cc1cc(O)ccc1S2 (stereo not given) — higher, 216 to 217 °C
- CC(C)(C)OC(=O)N[C@@H](Cc1ccccc1)C[C@H](O)[C@H](Cc1ccccc1)N(Cc1ccccc1)Cc1ccccc1 — higher, 145 to 146 °C
- CCOC1=CC(C)=C(C(=O)OC)C(C)(C)C1 — lower, 67 to 69 °C
- OCc1cc2cc3c(cc2nc1I)OCCO3 — higher, 178 to 180 °C
- Cc1cc(C)cc(NS(=O)(=O)c2ccc(N3CCNC3=O)cc2)c1 — higher, 216 to 218 °C
- COc1ccc(-c2ccnc(Nc3cc(OC)c(OC)c(OC)c3)n2)cc1 — higher, 148 to 150 °C
- BrCC1(c2ccc3ccccc3c2)OCCO1 — lower, 64 °C
- CN(C)c1nccc(N2CCN(C=O)CC2)n1 — higher, 116 °C
- COc1ccc(-n2nc(Sc3ccc(C(F)(F)F)cc3)c(C)c(C#N)c2=O)cc1 — higher, 151 to 155 °C
- CCOC(=O)c1conc1-c1cccc(C#N)c1 — higher, 135 to 137 °C
- Cc1ccccc1CNc1cccc(-c2ccnc3c(C(=O)c4cccs4)cnn23)c1 — higher, 177 to 179 °C
- O=C(C1=NN(c2ccc(Cl)cc2Cl)C(c2ccc(Cl)cc2)C1)N1CCCCC1 (stereo not given) — not separable, 105 to 110 °C
- O=C(O)C1=CS[C@@H]2[C@@H]([C@H](O)c3cn4c(n3)SCC4)C(=O)N12 — higher, 152 °C
- CCCc1nc(C(C)(C)O)c(C(=O)OCC)n1Cc1ccc(-c2ccccc2C(=O)NC(C)(C)C)cc1 — higher, 145 to 146 °C
- O=C1NCN(c2ccccc2)C12CCN(CCCOc1ccc(F)cc1Cl)CC2 — higher, 154 to 155 °C
- NC(c1ccccc1)c1nc2ccccc2s1 (stereo not given) — lower, 68 to 70 °C
- COC1=CC(=O)C(Br)=CC1=O — higher, 184 to 186 °C
- CC1(C)CNC(=Nc2ccccc2)S1 — higher, 153 to 155 °C
- COc1ccc(O)c(CN2CCN(C(=S)SC)CC2)c1 — higher, 112 °C
- COc1ccc(C(O)CNC(=O)C(N)=O)cc1OC1CCCC1 (stereo not given) — higher, 180 to 181 °C
- CC1=C(c2cccc(Cl)c2)n2ncc(C#N)c2N(C(=O)CCl)C1 — higher, 132 to 135 °C
- Cc1cc(N(C)S(C)(=O)=O)ccc1I — lower, 85 to 87 °C
- O=C(Nc1c(F)cccc1F)c1ccc(-n2nc(C(F)(F)F)cc2C2CC2)nc1 — higher, 192 to 194 °C
- CCOC(=O)C(C#N)NC(=O)OCc1ccccc1 (stereo not given) — higher, 111 to 112 °C
- CCCCCCN(CCCCCC)C(Nc1ccc(-c2ccccc2)cc1)=C1C(=O)COC1=O — higher, 138 to 140 °C
- CNC(=S)C1(c2cccc(C)n2)CCCS1 (stereo not given) — higher, 121 °C
- CCCc1c(COc2ccc(Cc3nnn(CCCS(C)(=O)=O)n3)cc2)ccc(C(C)=O)c1O — lower, 89 to 91 °C
- Cc1cc(-c2nncc3c(C(C)(C)C)c(OCc4ccccn4)nn23)no1 — higher, 175 to 178 °C
- O=c1[nH]cnc2ccc(S(=O)(=O)Cl)cc12 — higher, > 400 °C
- COc1nc(-c2ccccc2)c2c(n1)N(c1ccccc1)C(=O)NC2 — higher, 220 to 222 °C
- COc1ccc(-c2[nH]nc3c2C(=O)c2c(NC(=O)NNC(=O)c4ccccc4N)cccc2-3)cc1 — higher, 257 °C
- CC(C)(C)OC(=O)N1CCCCC1c1c[nH]c2ncccc12 (stereo not given) — higher, 144 to 145 °C
